Test results published in PubChem BioAssay (NCI).
Several values for one entry are separate records, joined by “and”; a condition that tells them apart may be missing. Equal values may be shown once.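 Grown in 96-well plates, cells were treated for 48 hours with each compound at five concentrations. Insufficient inhibition: endpoint recorded as highest concentration tested. Definition used: TGI = concentration required for complete inhibition of growth.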

Experiments:
Assay in all cases: NCI anticancer screen, dose series, 48 h
[1] = tested on: 786-0 renal
[2] = tested on: A549 NSCLC
[3] = tested on: CAKI-1 renal
[4] = tested on: CCRF-CEM leukemia
[5] = tested on: COLO 205 colon
[6] = tested on: HS 578T breast
[7] = tested on: IGROV1 ovarian
[8] = tested on: KM12 colon
[9] = tested on: MCF7 breast
[10] = tested on: MDA-MB-435
[11] = tested on: NCI-H23 lung
[12] = tested on: NCI-H460 lung
[13] = tested on: NCI-H522 lung
[14] = tested on: RXF 393 renal
[15] = tested on: SNB-19 CNS
[16] = tested on: SNB-75 CNS
[17] = tested on: SW-620 colon
[18] = tested on: UACC-257 melanoma
[19] = tested on: HOP-62 NSCLC

NNC(=O)c1ccccc1NC(=O)/C(=C/c1ccccc1O)NC(=O)c1ccccc1
TGI [1]: > 100 µM | TGI [2]: > 100 µM | TGI [3]: 31.8 µM | TGI [4]: > 100 µM | TGI [5]: > 100 µM | TGI [6]: 39.3 µM | TGI [7]: > 100 µM | TGI [8]: > 100 µM | TGI [9]: 39.2 µM | TGI [10]: > 100 µM | TGI [11]: > 100 µM | TGI [12]: > 100 µM | TGI [13]: 47.4 µM | TGI [14]: > 100 µM | TGI [15]: 79.7 µM | TGI [16]: 25.9 µM | TGI [17]: > 100 µM | TGI [18]: > 100 µM

CC(=O)OCC(OC(C)=O)C(OC(C)=O)C(OC(C)=O)C(C=NN(C(C)=O)S(=O)(=O)c1ccc(/C=C2\NC(=O)N(C)C2=O)cc1)OC(C)=O (stereo not drawn)
TGI [1]: 80 µM and 68.9 µM | TGI [2]: > 100 µM | TGI [3]: > 100 µM | TGI [4]: 41.6 µM | TGI [5]: > 100 µM | TGI [19]: > 100 µM | TGI [6]: > 100 µM | TGI [7]: 75.2 µM and > 100 µM | TGI [8]: > 100 µM | TGI [9]: > 100 µM | TGI [10]: > 100 µM | TGI [11]: > 100 µM | TGI [12]: 50.3 µM and 56.5 µM | TGI [13]: 72.9 µM | TGI [14]: 34.4 µM and 52.1 µM | TGI [15]: > 100 µM | TGI [16]: > 100 µM | TGI [17]: 83.7 µM and 97.7 µM | TGI [18]: > 100 µM

COc1cc(OC)c2c(=O)cc(-c3ccccc3F)[nH]c2c1
TGI [1]: > 100 µM | TGI [2]: > 100 µM | TGI [3]: > 100 µM | TGI [4]: > 100 µM | TGI [5]: > 100 µM | TGI [19]: > 100 µM | TGI [6]: > 100 µM | TGI [7]: > 100 µM | TGI [8]: > 100 µM | TGI [9]: > 100 µM | TGI [10]: > 100 µM | TGI [11]: > 100 µM | TGI [12]: > 100 µM | TGI [13]: > 100 µM | TGI [14]: > 100 µM | TGI [15]: 73.6 µM | TGI [16]: > 100 µM | TGI [17]: > 100 µM | TGI [18]: > 100 µM

Cc1ccc(N=Nc2ccc(O)c(CN(C)C)c2)cc1C
TGI [1]: > 100 µM | TGI [2]: > 100 µM | TGI [3]: > 100 µM | TGI [4]: 76.5 µM | TGI [5]: 25.6 µM | TGI [19]: 52.5 µM | TGI [6]: 56.2 µM | TGI [7]: 84.3 µM | TGI [8]: 45.6 µM | TGI [9]: > 100 µM | TGI [10]: 40.4 µM | TGI [11]: > 100 µM | TGI [12]: 42.6 µM | TGI [13]: 28.3 µM | TGI [14]: 57.8 µM | TGI [15]: > 100 µM | TGI [16]: > 100 µM | TGI [17]: > 100 µM | TGI [18]: 58.9 µM

CCN1CCN(c2ccc(Nc3ccnc4ccc5c(nnn5C)c34)cc2)CC1
TGI [1]: 15.9 µM | TGI [2]: 22.3 µM | TGI [3]: 21.7 µM | TGI [4]: 54.7 µM | TGI [5]: 15.4 µM | TGI [19]: 17.4 µM | TGI [6]: 31.9 µM | TGI [7]: 32.6 µM | TGI [8]: 12.4 µM | TGI [9]: 14.8 µM | TGI [10]: 17.9 µM | TGI [11]: 29.4 µM | TGI [12]: 11.9 µM | TGI [13]: 6.21 µM | TGI [14]: 23.4 µM | TGI [15]: 15.1 µM | TGI [16]: 30.5 µM | TGI [17]: 19 µM | TGI [18]: 26.1 µM

CN(C)c1ccc(/C=c2/c3ccccc3n3nc4ccccc4c23)cc1
TGI [1]: > 100 µM | TGI [2]: > 100 µM | TGI [3]: > 100 µM | TGI [4]: 76.5 µM | TGI [5]: 50.9 µM | TGI [19]: > 100 µM | TGI [6]: > 100 µM | TGI [7]: > 100 µM | TGI [8]: > 100 µM | TGI [9]: > 100 µM | TGI [10]: > 100 µM | TGI [11]: > 100 µM | TGI [12]: > 100 µM | TGI [13]: 31.9 µM | TGI [14]: 66.8 µM | TGI [15]: > 100 µM | TGI [16]: 27.7 µM | TGI [17]: > 100 µM | TGI [18]: > 100 µM

O=C(CC(C(=O)c1ccco1)c1ccsc1)c1ccco1 (stereo not drawn)
TGI [1]: > 100 µM | TGI [2]: > 100 µM | TGI [3]: > 100 µM | TGI [4]: > 100 µM | TGI [5]: > 100 µM | TGI [19]: > 100 µM | TGI [6]: > 100 µM | TGI [7]: > 100 µM | TGI [8]: > 100 µM | TGI [9]: > 100 µM | TGI [10]: > 100 µM | TGI [11]: > 100 µM | TGI [12]: > 100 µM | TGI [13]: > 100 µM | TGI [14]: > 100 µM | TGI [16]: > 100 µM | TGI [17]: > 100 µM | TGI [18]: > 100 µM

COc1cc(NC(C)=O)ccc1C(=O)N/N=C/c1ccc(Cl)cc1Cl
TGI [1]: 64.4 µM | TGI [2]: > 100 µM | TGI [3]: > 100 µM | TGI [4]: > 100 µM | TGI [5]: > 100 µM | TGI [19]: > 100 µM | TGI [6]: > 100 µM | TGI [7]: > 100 µM | TGI [8]: > 100 µM | TGI [9]: > 100 µM | TGI [10]: 56.4 µM | TGI [11]: > 100 µM | TGI [13]: > 100 µM | TGI [14]: 72.5 µM | TGI [15]: > 100 µM | TGI [16]: 36.5 µM | TGI [17]: > 100 µM | TGI [18]: 70.9 µM

CCOP(=O)(CCCC(O)CNc1cc(Cl)nc(N)n1)OCC (stereo not drawn)
TGI [1]: > 100 µM | TGI [2]: > 100 µM | TGI [3]: > 100 µM | TGI [4]: > 100 µM | TGI [5]: > 100 µM | TGI [19]: > 100 µM | TGI [6]: > 100 µM | TGI [7]: > 100 µM | TGI [8]: > 100 µM | TGI [9]: > 100 µM | TGI [10]: > 100 µM | TGI [11]: > 100 µM | TGI [12]: > 100 µM | TGI [13]: > 100 µM | TGI [14]: > 100 µM | TGI [16]: > 100 µM | TGI [17]: > 100 µM | TGI [18]: > 100 µM

Cc1c(C)c2c(c(N)c1C#N)C(=O)N(Nc1ccccc1)C2=O
TGI [1]: > 100 µM | TGI [2]: > 100 µM | TGI [3]: > 100 µM | TGI [4]: > 100 µM | TGI [5]: > 100 µM | TGI [6]: > 100 µM | TGI [7]: > 100 µM | TGI [8]: > 100 µM | TGI [9]: > 100 µM | TGI [10]: > 100 µM | TGI [12]: > 100 µM | TGI [13]: > 100 µM | TGI [14]: 47.1 µM | TGI [15]: > 100 µM | TGI [16]: > 100 µM | TGI [17]: > 100 µM | TGI [18]: > 100 µM

Cc1ccc(C)n1-n1c(Cc2ccccc2)n[nH]c1=O
TGI [1]: > 100 µM | TGI [2]: > 100 µM | TGI [3]: > 100 µM | TGI [4]: > 100 µM | TGI [5]: > 100 µM | TGI [19]: > 100 µM | TGI [6]: > 100 µM | TGI [7]: > 100 µM | TGI [8]: > 100 µM | TGI [9]: > 100 µM | TGI [10]: > 100 µM | TGI [12]: > 100 µM | TGI [13]: > 100 µM | TGI [14]: > 100 µM | TGI [15]: > 100 µM | TGI [16]: > 100 µM | TGI [17]: > 100 µM | TGI [18]: > 100 µM

COc1cc(CNc2ccc3nc4n(c(=O)c3c2)CCCCC4)cc(OC)c1OC
TGI [1]: > 100 µM | TGI [2]: > 100 µM | TGI [3]: > 100 µM | TGI [4]: > 100 µM | TGI [5]: > 100 µM | TGI [19]: > 100 µM | TGI [6]: > 100 µM | TGI [7]: > 100 µM | TGI [8]: > 100 µM | TGI [9]: > 100 µM | TGI [10]: > 100 µM | TGI [11]: > 100 µM | TGI [12]: > 100 µM | TGI [13]: > 100 µM | TGI [14]: > 100 µM | TGI [16]: > 100 µM | TGI [17]: > 100 µM | TGI [18]: 75.8 µM

CCOC(=O)C(/C=N\C(=S)Nc1ccc(Cl)c(Cl)c1)=C(/O)c1ccccc1
TGI [1]: > 100 µM | TGI [2]: > 100 µM | TGI [3]: 84.9 µM | TGI [4]: > 100 µM | TGI [5]: > 100 µM | TGI [19]: > 100 µM | TGI [6]: 10.5 µM | TGI [7]: > 100 µM | TGI [8]: > 100 µM | TGI [9]: > 100 µM | TGI [10]: 93.5 µM | TGI [11]: > 100 µM | TGI [12]: > 100 µM | TGI [13]: 26.1 µM | TGI [14]: > 100 µM | TGI [16]: 55.9 µM | TGI [17]: > 100 µM | TGI [18]: > 100 µM
